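Method: 48-hour compound exposure of cells in 96-well plates, five concentrations, linear interpolation of endpoints. At the GI50, growth is halved.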 Calls of active or inactive are those of the source. No stated cut-off is given here; in the data, active = GI50 up to about 1.1 µM and inactive = higher.
Columns and labels:
Assay in all cases: DTP human tumour cell line panel, 48 h
[1] = tested on: 786-0
[2] = tested on: A549
[3] = tested on: ACHN
[4] = tested on: CAKI-1
[5] = tested on: CCRF-CEM
[6] = tested on: COLO 205
[7] = tested on: DLD-1
[8] = tested on: DMS-114
[9] = tested on: DMS-273
[10] = tested on: HCC 2998
[11] = tested on: HCT-116
[12] = tested on: HCT-15
[13] = tested on: HL-60
[14] = tested on: HOP-62
[15] = tested on: HOP-92
[16] = tested on: HT-29
[17] = tested on: IGROV-1
[18] = tested on: K562
[19] = tested on: KM-20L2
[20] = tested on: KM12
[21] = tested on: LOX IMVI
[22] = tested on: LXFL 529
[23] = tested on: M14
[24] = tested on: M19-MEL
[25] = tested on: MOLT-4
[26] = tested on: Malme-3M
[27] = tested on: NCI-H226
[28] = tested on: NCI-H23
[29] = tested on: NCI-H460
[30] = tested on: NCI-H522
[31] = tested on: OVCAR-3
[32] = tested on: OVCAR-4
[33] = tested on: OVCAR-5
[34] = tested on: OVCAR-8
[35] = tested on: RPMI-8226
[36] = tested on: RXF 393
[37] = tested on: RXF 631
[38] = tested on: SF-268
[39] = tested on: SF-295
[40] = tested on: SF-539
[41] = tested on: SK-MEL-28
[42] = tested on: SK-MEL-5
[43] = tested on: SK-OV-3
[44] = tested on: SN12C
[45] = tested on: SNB-19
[46] = tested on: SNB-75
[47] = tested on: SNB-78
[48] = tested on: SR
[49] = tested on: SW-620
[50] = tested on: TK-10
[51] = tested on: U-251
[52] = tested on: UACC-257
[53] = tested on: UACC-62
[54] = tested on: UO-31
[55] = tested on: A498
[56] = tested on: EKVX
[57] = tested on: SK-MEL-2

For CC1(C)CCCC2(C)[C@@H]1CC[C@@]13CC(=O)[C@@](C)(CC[C@@H]21)C3 (stereo partly drawn), the GI50 [1] was > 100 µM (inactive), the GI50 [2] was 85.1 µM (inactive) and the GI50 [3] was 87.3 µM (inactive). For the same compound, the GI50 [4] was > 100 µM (inactive), the GI50 [5] was > 100 µM (inactive) and the GI50 [6] was > 100 µM (inactive). The GI50 [7] was > 100 µM (inactive), the GI50 [8] was 46 µM (inactive) and the GI50 [9] was 55.6 µM (inactive). The GI50 [10] was > 100 µM (inactive), the GI50 [11] was 46.1 µM (inactive) and the GI50 [12] was 97.5 µM. For the same compound, the GI50 [13] was 52.4 µM (inactive), the GI50 [14] was 82.2 µM (inactive) and the GI50 [15] was > 100 µM (inactive). For the same compound, the GI50 [16] was 30 µM (inactive), the GI50 [17] was > 100 µM (inactive) and the GI50 [18] was > 100 µM (inactive). The GI50 [19] was 72.3 µM (inactive), the GI50 [20] was 80.5 µM (inactive) and the GI50 [21] was 39.4 µM (inactive). For the same compound, the GI50 [22] was 80.2 µM (inactive), the GI50 [23] was 94.6 µM (inactive) and the GI50 [24] was 31.5 µM (inactive). For the same compound, the GI50 [25] was 57.4 µM (inactive), the GI50 [26] was > 100 µM (inactive) and the GI50 [27] was 83.4 µM (inactive). The GI50 [28] was 59.7 µM (inactive), the GI50 [29] was 42.1 µM (inactive) and the GI50 [30] was 20.9 µM (inactive). The GI50 [31] was > 100 µM (inactive), the GI50 [32] was 87.9 µM (inactive) and the GI50 [33] was > 100 µM (inactive). The GI50 [34] was 85.7 µM (inactive), the GI50 [35] was 57 µM (inactive) and the GI50 [36] was 18.3 µM (inactive). For the same compound, the GI50 [37] was 78.3 µM (inactive), the GI50 [38] was 95.7 µM (inactive) and the GI50 [39] was > 100 µM (inactive). The GI50 [40] was > 100 µM (inactive), the GI50 [41] was > 100 µM (inactive) and the GI50 [42] was 52.5 µM (inactive). The GI50 [43] was > 100 µM (inactive), the GI50 [44] was 93.5 µM (inactive) and the GI50 [45] was > 100 µM (inactive). The GI50 [46] was > 100 µM (inactive), the GI50 [47] was > 100 µM (inactive) and the GI50 [48] was 42.5 µM (inactive). The GI50 [49] was > 100 µM (inactive), the GI50 [50] was > 100 µM (inactive) and the GI50 [51] was 49 µM (inactive). For the same compound, the GI50 [52] was 32.7 µM (inactive), the GI50 [53] was > 100 µM (inactive) and the GI50 [54] was > 100 µM (inactive).

With COC1CCC2C(NS(=O)(=O)c3ccc(C)cc3)CCCC2O1.Cc1ccc(S(=O)(=O)NC(C)(C)C=O)cc1 (stereo not drawn) the GI50 [1] was 19.9 µM (inactive), the GI50 [55] was > 34.5 µM (inactive) and the GI50 [2] was 16.2 µM (inactive). The GI50 [3] was 24.8 µM (inactive), the GI50 [4] was 20.3 µM (inactive) and the GI50 [5] was 10.2 µM (inactive). For the same compound, the GI50 [7] was 20.3 µM (inactive), the GI50 [8] was 9.31 µM (inactive) and the GI50 [9] was 8.41 µM (inactive). The GI50 [56] was 31 µM (inactive), the GI50 [10] was 33.5 µM (inactive) and the GI50 [11] was 7.33 µM (inactive). For the same compound, the GI50 [12] was 15.6 µM, the GI50 [13] was 8.18 µM (inactive) and the GI50 [14] was 20.8 µM (inactive). For the same compound, the GI50 [15] was 3.66 µM (inactive), the GI50 [16] was 11.4 µM (inactive) and the GI50 [17] was 16.4 µM (inactive). The GI50 [18] was 9.68 µM (inactive), the GI50 [19] was 32.6 µM (inactive) and the GI50 [20] was 12.4 µM (inactive). The GI50 [21] was 5.62 µM (inactive), the GI50 [23] was 16.7 µM (inactive) and the GI50 [24] was 12.7 µM (inactive). For the same compound, the GI50 [25] was 8.3 µM (inactive), the GI50 [26] was 23 µM (inactive) and the GI50 [27] was 10.3 µM (inactive). The GI50 [28] was 11.1 µM (inactive), the GI50 [29] was 11.6 µM (inactive) and the GI50 [30] was 9.02 µM (inactive). For the same compound, the GI50 [31] was 13 µM (inactive), the GI50 [32] was 12.6 µM (inactive) and the GI50 [33] was > 34.5 µM (inactive). The GI50 [34] was 16.1 µM (inactive), the GI50 [35] was 6.21 µM (inactive) and the GI50 [36] was 11.4 µM (inactive). The GI50 [37] was 10.2 µM (inactive), the GI50 [38] was > 34.5 µM (inactive) and the GI50 [39] was 8.51 µM (inactive). For the same compound, the GI50 [40] was 20 µM (inactive), the GI50 [41] was 30 µM (inactive) and the GI50 [57] was > 34.5 µM (inactive). For the same compound, the GI50 [42] was 7.76 µM (inactive), the GI50 [43] was > 34.5 µM (inactive) and the GI50 [44] was 23.5 µM (inactive). For the same compound, the GI50 [45] was 16.1 µM (inactive), the GI50 [46] was 25 µM (inactive) and the GI50 [47] was > 34.5 µM (inactive). For the same compound, the GI50 [49] was > 34.5 µM (inactive), the GI50 [50] was 18.1 µM (inactive) and the GI50 [51] was > 34.5 µM (inactive). The GI50 [52] was 3.29 µM (inactive), the GI50 [53] was 33 µM (inactive) and the GI50 [54] was 15 µM (inactive).
